The text below walks through data of paper PMC9033141, “Beta and Gamma Amino Acid-Substituted Benzenesulfonamides as Inhibitors of Human Carbonic Anhydrases” (Pharmaceuticals, 2022).

Where two headings read alike, the source gives them in different places. Some results are limits rather than exact numbers.

The target of data set [1] is T1, CAIX (Homo sapiens, UniProt Q16790).
T1 construct: made in house
The conditions noted are these: FTSA, pH 7.0, 37 °C; taken from previous publication; read-out: Observed Dissociation Constant (Kd_obs), CAIX; cited from earlier work.

Data set [2] has as its target T2, CAI (Homo sapiens, UniProt P00915).
T2 construct: made in house; host or cells: E. coli
The conditions noted are these: FTSA, pH 7.0, 37 °C; taken from previous publication; read-out: Observed Dissociation Constant (Kd_obs), CAI; cited from earlier work.

Data set [3] has as its target T3, CAII (Homo sapiens, UniProt P00918).
T3 construct: made in house; host or cells: E. coli
As to conditions: FTSA, pH 7.0, 37 °C; taken from previous publication; read-out: Observed Dissociation Constant (Kd_obs), CAII; cited from earlier work.

Data set [4] has as its target T4, CAXII (Homo sapiens, UniProt O43570).
T4 construct: made in house; host or cells: E. coli
As to conditions: FTSA, pH 7.0, 37 °C; taken from previous publication; read-out: Observed Dissociation Constant (Kd_obs), CAXII; cited from earlier work.

For data set [5], the target named is T5, CAXIII (Homo sapiens, UniProt Q8N1Q1). As to conditions: 37 °C; calculated (Equation 5).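 Further: recombinant human CAXIII melting temperature tracked by ANS fluorescence in thermal shift assay, Tm fitted against ligand concentration, intrinsic value corrects Kd for deprotonated sulfonamide and Zn-bound water fractions.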
A short description of data set [6]: Determination of compound sulfonamide group pKa (UV-Vis spectra at different pH). In kind it is physicochemical. As to conditions: universal buffer; spectrophotometric, 37 °C; read-out: Sulfonamide pKa. As to the method:
To calculate the intrinsic thermodynamic parameters of compound binding to CA isozymes, the pKa values of the sulfonamide group and the water molecule bound to the Zn(II) ion at the active site of CA proteins had to be determined. The pKa values for CA isozyme-bound water molecules were taken from, CAI—8.1; CAII—6.9; CAIII—6.5; CAIV—6.6; CAVA—6.7; CAVB—7.0; CAVI—6.0; CAVII—6.8; CAIX—6.6; CAXII—6.8; CAXIII—8.0; CAXIV—6.1. […] The pKa values were calculated as described previously in [28, 52] by normalizing the absorbance, plotting it as a function of pH, then fitting to the Henderson–Hasselbalch equation using the least square method (Figure S105).
Since the pKa values were only able to be measured for compound group 26–36, due to universal buffer pH limitations, intrinsic thermodynamic parameters were not calculated for compounds 2(a,b)–25(a,b), only for compounds 26–36 using experimentally obtained pKa values when possible and using the average pKa value mentioned above for compounds not measured.

For data set [7], the target named is T6, CAXIV (Homo sapiens, UniProt Q9ULX7).
T6 construct: made in house; host or cells: E. coli
Kind of data set: Fluorescent thermal shift assay (FTSA), CAXIV.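 On all read-outs here: recombinant human CA XIV from E. coli, ANS-based thermal shift: Kd_obs fitted from melting temperature versus ligand concentration, ΔGint from Kd_obs corrected for deprotonated sulfonamide and Zn-water fractions.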 The data set is classed as binding. As to conditions: for Intrinsic Gibbs energy change (ΔGint), CAXIV: 37 °C, calculated (Equation 5); for Kd: FTSA, pH 7.0, 37 °C, read-out: Observed Dissociation Constant (Kd_obs), CAXIV.
Experimental: (§1) Human CA isozymes were expressed in E. coli (CAI, II, III, IV, VA, VB, VII, XII, XIII, XIV) or mammalian cells (CAVI and CAIX), chromatographically purified following the published protocols [47], and stored at −80 °C. The protein concentration was determined by UV absorption at 280 nm using Beer–Lambert law.
(§2) The QIAGEN Rotor-Gene Q was used to carry out the experiments, with a blue channel used for excitation (365 nm) and detection (460 nm). FTSA in this case relies on an extrinsic probe, 8-anilino-1-naphthalenesulfonate (ANS), to detect the fluorescence increase during protein denaturation, from which protein melting temperature (Tm) can be determined. […] The observed affinity of ligands for CAs was determined by plotting the Tm as a function of ligand concentration and then fitting a curve as described previously [48]. […] Samples were heated from 25 °C to 99 °C at the speed of 1 °C/min.
(§3) The intrinsic thermodynamic parameters were calculated as described in [40]. The intrinsic reaction of inhibitor binding to CA is shown in Equation (1). […] It is known that CA proteins bind sulfonamides only when water molecules are coordinated to the Zn(II) ion, and sulfonamides only bind to CA proteins when their amino group is deprotonated (confirmed by neutron crystallography [53, 54, 55]):(1) CA Zn^II−H2O+RSO2NH^−⇄ CA Zn^II−NH SO2R+H2O
(§4) When calculating Kd_int values, these protein and ligand fractions from Equation (1) have to be accounted for (Equations (2) and (3)). The intrinsic dissociation constant is calculated by multiplying Kd_obs value by the corresponding fractions of protein and ligand (Equation (4)). (2) fRSO2NH^−=10^pH−pKa_RSO2NH2/1+10^pH−pKa_RSO2NH2 (3) fCAZnH2O=1−10^pH−pKa_CAZnH2O/1+10^pH−pKa_CAZnH2O (4) Kd_int=Kd_obs×fRSO2NH^−×fCAZnH2O (5) ΔGint0=RTlnKd_int
(§5) The intrinsic standard Gibbs energy changes upon binding were calculated using Equation (5). Here, R—universal ideal gas constant (8.3144 J/mol·K), T—absolute temperature (310.15 K).

Data set [8] concerns the target T7, CAVI (Homo sapiens, UniProt P23280).
T7 construct: made in house
Kind of data set: Fluorescent thermal shift assay (FTSA), CAVI.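 On all read-outs here: human CAVI expressed in mammalian cells, ANS fluorescence tracked during thermal unfolding, melting temperature fitted against ligand concentration, intrinsic values corrected for deprotonated sulfonamide and Zn-bound water fractions.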 The conditions noted are these: for Intrinsic Gibbs energy change (ΔGint), CAVI: 37 °C, calculated (Equation 5); for Kd: FTSA, pH 7.0, 37 °C, read-out: Observed Dissociation Constant (Kd_obs), CAVI. The data set is classed as binding.
Experimental: as §1, §2, §3, §4, §5

The target of data set [9] is T8, CAVB (Homo sapiens, UniProt Q9Y2D0).
T8 construct: made in house; host or cells: E. coli
The experiment in a line: Isothermal titration calorimetry (ITC), CAVB. In kind it is binding. As to conditions: pH 7.0, 37 °C.

Data set [10] concerns the target T2, CAI. The experiment in a line: biochemical. The data set is classed as binding. As to conditions: for Intrinsic Gibbs energy change (ΔGint), CAI: 37 °C, calculated (Equation 5); for Kd: FTSA, pH 7.0, 37 °C, read-out: Observed Dissociation Constant (Kd_obs), CAI.
Experimental: as §1, §2
(§6) The intrinsic thermodynamic parameters were calculated as described in [40]. The intrinsic reaction of inhibitor binding to CA is shown in Equation (1).
as §4, §5
Data set [11] addresses T5, CAXIII. Kind of data set: biochemical. As to conditions: Observed Dissociation Constant (Kd_obs), FTSA, pH 7.0, 37 °C.
In data set [12] the target is T4, CAXII. Kind of data set: biochemical. The data set is classed as binding. The conditions noted are these: for Intrinsic Gibbs energy change (ΔGint), CAXII: 37 °C, calculated (Equation 5); for Kd: FTSA, pH 7.0, 37 °C, read-out: Observed Dissociation Constant (Kd_obs), CAXII.
The target in data set [13] is T9, CAVA (Homo sapiens, UniProt P35218).
T9 construct: made in house; host or cells: E. coli
Kind of data set: Fluorescent thermal shift assay (FTSA), CAVA. The data set is classed as binding. As to conditions: FTSA, pH 7.0, 37 °C; read-out: Observed Dissociation Constant (Kd_obs), CAVA.

Data set [14] has as its target T3, CAII. Kind of data set: biochemical. The data set is classed as binding. As to conditions: for Intrinsic Gibbs energy change (ΔGint), CAII: 37 °C, calculated (Equation 5); for Kd: FTSA, pH 7.0, 37 °C, read-out: Observed Dissociation Constant (Kd_obs), CAII.
Experimental: as §1, §2, §6, §4, §5
The target in data set [15] is T10, CAIV (Homo sapiens, UniProt P22748).
T10 construct: made in house; host or cells: E. coli
Kind of data set: Fluorescent thermal shift assay (FTSA), CAIV.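 On all read-outs here: recombinant human enzyme, thermal denaturation followed by ANS fluorescence, melting temperature versus ligand concentration fitted for Kd_obs, intrinsic value corrected for deprotonated sulfonamide and Zn-bound water fractions.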 The data set is classed as binding. The conditions noted are these: for Intrinsic Gibbs energy change (ΔGint), CAIV: 37 °C, calculated (Equation 5); for Kd: FTSA, pH 7.0, 37 °C, read-out: Observed Dissociation Constant (Kd_obs), CAIV.

Data set [16] has as its target T11, CAVII (Homo sapiens, UniProt P43166).
T11 construct: made in house; host or cells: E. coli
The experiment in a line: Fluorescent thermal shift assay (FTSA), CAVII. In kind it is binding. The conditions noted are these: for Intrinsic Gibbs energy change (ΔGint), CAVII: 37 °C, calculated (Equation 5); for Kd: FTSA, pH 7.0, 37 °C, read-out: Observed Dissociation Constant (Kd_obs), CAVII.
Experimental: as §1, §2, §3, §4, §5

For data set [17], the target named is T12, CAIII (Homo sapiens, UniProt P07451).
T12 construct: made in house; host or cells: E. coli
The experiment in a line: Fluorescent thermal shift assay (FTSA), CAIII. The data set is classed as binding. As to conditions: for Kd: FTSA, pH 7.0, 37 °C, read-out: Observed Dissociation Constant (Kd_obs), CAIII.
Experimental: as §1, §2, §3, §4, §5

Data set [18] addresses T8, CAVB. The experiment in a line: Fluorescent thermal shift assay (FTSA), CAVB. In kind it is binding. As to conditions: for Intrinsic Gibbs energy change (ΔGint), CAVB: 37 °C, calculated (Equation 5); for Kd: FTSA, pH 7.0, 37 °C, read-out: Observed Dissociation Constant (Kd_obs), CAVB.
Experimental: as §1, §2, §3, §4, §5
The target in data set [19] is T1, CAIX. The experiment in a line: biochemical. In kind it is binding. The conditions noted are these: for Intrinsic Gibbs energy change (ΔGint), CAIX: 37 °C, calculated (Equation 5); for Kd: FTSA, pH 7.0, 37 °C, read-out: Observed Dissociation Constant (Kd_obs), CAIX.

T6 sequence (Q9ULX7 16-337): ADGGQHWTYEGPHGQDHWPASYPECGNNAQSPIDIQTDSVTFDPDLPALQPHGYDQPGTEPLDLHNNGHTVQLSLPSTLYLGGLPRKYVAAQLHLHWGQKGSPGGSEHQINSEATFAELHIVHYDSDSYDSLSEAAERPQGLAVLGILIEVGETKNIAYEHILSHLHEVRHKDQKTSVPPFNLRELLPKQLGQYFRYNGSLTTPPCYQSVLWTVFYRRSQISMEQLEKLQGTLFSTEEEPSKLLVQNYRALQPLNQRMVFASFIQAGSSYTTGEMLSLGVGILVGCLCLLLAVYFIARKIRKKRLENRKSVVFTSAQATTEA
T4 sequence (O43570 25-354): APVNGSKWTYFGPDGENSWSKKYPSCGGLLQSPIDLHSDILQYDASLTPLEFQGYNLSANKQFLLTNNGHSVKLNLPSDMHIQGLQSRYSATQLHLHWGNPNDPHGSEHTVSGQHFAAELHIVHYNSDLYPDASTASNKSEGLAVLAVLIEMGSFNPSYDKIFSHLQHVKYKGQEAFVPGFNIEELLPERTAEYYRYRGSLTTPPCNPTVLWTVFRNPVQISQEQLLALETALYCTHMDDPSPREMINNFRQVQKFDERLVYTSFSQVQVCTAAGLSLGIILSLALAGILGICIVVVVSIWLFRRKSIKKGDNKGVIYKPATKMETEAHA
T2 sequence (P00915 whole entry): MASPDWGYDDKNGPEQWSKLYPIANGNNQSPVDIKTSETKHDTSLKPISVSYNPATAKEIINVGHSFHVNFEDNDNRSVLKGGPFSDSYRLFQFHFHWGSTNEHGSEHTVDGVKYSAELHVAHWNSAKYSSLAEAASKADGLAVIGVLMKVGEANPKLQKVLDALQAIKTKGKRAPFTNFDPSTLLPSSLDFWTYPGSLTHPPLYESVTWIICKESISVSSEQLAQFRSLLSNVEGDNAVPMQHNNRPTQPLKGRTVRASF
T7 sequence (P23280 21-290 limits assumed): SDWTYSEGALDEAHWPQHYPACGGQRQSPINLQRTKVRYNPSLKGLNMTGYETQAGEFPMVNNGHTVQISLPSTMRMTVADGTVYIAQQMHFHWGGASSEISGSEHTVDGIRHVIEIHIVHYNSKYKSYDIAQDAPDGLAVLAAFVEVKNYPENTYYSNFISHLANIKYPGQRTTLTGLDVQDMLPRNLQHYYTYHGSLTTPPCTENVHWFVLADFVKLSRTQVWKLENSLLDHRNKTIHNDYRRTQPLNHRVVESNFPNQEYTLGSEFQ
T8 sequence (Q9Y2D0 34-317): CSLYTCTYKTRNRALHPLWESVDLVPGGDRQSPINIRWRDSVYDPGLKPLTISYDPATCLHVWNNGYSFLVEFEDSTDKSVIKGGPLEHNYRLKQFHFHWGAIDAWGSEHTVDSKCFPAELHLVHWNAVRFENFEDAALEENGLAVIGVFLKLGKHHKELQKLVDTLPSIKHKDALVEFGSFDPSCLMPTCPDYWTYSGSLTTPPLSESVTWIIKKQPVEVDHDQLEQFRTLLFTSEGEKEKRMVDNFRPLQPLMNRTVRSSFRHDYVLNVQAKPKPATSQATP
T11 sequence (P43166 whole entry): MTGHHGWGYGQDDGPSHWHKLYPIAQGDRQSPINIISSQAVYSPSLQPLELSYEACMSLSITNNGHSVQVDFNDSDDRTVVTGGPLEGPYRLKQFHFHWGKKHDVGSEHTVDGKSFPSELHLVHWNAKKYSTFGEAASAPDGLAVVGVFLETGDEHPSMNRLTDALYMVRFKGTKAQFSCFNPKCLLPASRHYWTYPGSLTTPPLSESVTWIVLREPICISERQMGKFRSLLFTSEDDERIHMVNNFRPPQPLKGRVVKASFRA
T5 sequence (Q8N1Q1 whole entry): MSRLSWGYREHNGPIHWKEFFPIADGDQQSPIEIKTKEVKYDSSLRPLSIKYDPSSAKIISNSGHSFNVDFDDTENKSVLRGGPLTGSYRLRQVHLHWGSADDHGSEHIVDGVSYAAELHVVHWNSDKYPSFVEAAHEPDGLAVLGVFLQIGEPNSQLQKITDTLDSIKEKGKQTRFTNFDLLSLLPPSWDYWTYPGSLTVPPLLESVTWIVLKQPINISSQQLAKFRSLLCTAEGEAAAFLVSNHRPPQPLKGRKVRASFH
T10 sequence (P22748 19-312): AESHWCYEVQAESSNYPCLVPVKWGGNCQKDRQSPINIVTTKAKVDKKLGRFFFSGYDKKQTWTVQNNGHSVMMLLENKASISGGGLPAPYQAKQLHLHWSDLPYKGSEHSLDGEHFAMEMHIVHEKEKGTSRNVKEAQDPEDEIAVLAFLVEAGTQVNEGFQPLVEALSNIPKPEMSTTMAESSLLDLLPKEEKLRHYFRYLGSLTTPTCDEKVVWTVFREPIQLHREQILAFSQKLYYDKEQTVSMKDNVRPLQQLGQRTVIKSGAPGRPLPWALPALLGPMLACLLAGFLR
T12 sequence (P07451 whole entry): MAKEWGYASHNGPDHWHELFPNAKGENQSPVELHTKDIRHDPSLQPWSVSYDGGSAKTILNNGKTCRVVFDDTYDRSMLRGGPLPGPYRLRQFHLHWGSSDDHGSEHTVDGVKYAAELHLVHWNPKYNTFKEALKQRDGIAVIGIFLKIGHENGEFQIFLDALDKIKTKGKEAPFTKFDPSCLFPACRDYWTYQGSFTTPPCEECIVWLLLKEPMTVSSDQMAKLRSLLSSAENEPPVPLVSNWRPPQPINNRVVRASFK
T9 sequence (P35218 39-305): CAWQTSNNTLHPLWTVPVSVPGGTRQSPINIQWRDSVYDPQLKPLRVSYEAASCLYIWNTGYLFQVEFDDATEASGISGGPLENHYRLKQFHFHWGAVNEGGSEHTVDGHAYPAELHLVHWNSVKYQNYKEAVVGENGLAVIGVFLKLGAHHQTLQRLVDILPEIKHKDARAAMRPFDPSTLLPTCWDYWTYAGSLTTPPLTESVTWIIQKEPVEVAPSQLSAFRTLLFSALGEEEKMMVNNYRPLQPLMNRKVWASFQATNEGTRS

Turning to `Cc1cc(C)n(C(=O)C2CC(=O)N(c3ccc(S(N)(=O)=O)cc3)C2)n1` (centres unmarked) [Compound 21], the Kd is 220 nM in [1], 250 nM in data set [2], 66 nM in [3] and 1400 nM in data set [4].
For `CCOC(=O)c1sc(N(CCC(=O)OC)c2ccc(S(N)(=O)=O)cc2)nc1C` [Compound 32, Ethyl 2-((3-Methoxy-3-oxopropyl)(4-sulfamoylphenyl)amino)-4-methylthiazole-5-carboxylate], the melting point was in the range of 140 to 141 °C. In data set [5], the “Intrinsic Gibbs energy change (ΔGint), CAXIII” value is -13.1 kcal/mol. Besides, the pKa in data set [6] was determined as 9.7. For the same compound, in data set [7], the “Intrinsic Gibbs energy change (ΔGint), CAXIV” value was -13.8 kcal/mol and the Kd worked out at 770 nM. In data set [8], the “Intrinsic Gibbs energy change (ΔGint), CAVI” value is -12.4 kcal/mol and the Kd amounted to 10000 nM. Also, in data set [9] (50 mM sodium phosphate buffer, 100 mM NaCl), the “ΔHobs, CAVB” value was -9.6 kcal/mol. In data set [9] (read-out: Observed Dissociation Constant (Kd_obs), CAVB, ITC data in brackets), the Kd was determined as 41 nM. Moreover, in data set [10], the “Intrinsic Gibbs energy change (ΔGint), CAI” value is -12.5 kcal/mol and the Kd was found to be 830 nM. This compound registered a Kd in data set [11] of 330 nM. Also, in [12], the “Intrinsic Gibbs energy change (ΔGint), CAXII” value was -11.7 kcal/mol and the Kd was 7700 nM. Moreover, the Kd in data set [13] is ≥ 200000 nM. Besides, in [14], the “Intrinsic Gibbs energy change (ΔGint), CAII” value was -14.6 kcal/mol and the Kd was 53 nM. Besides, in data set [15], the “Intrinsic Gibbs energy change (ΔGint), CAIV” value was -12.7 kcal/mol and the Kd came out at 2000 nM. For the same compound, in [16], the “Intrinsic Gibbs energy change (ΔGint), CAVII” value was -14.2 kcal/mol and the Kd was determined as 130 nM. For the same compound, the Kd in [17] is ≥ 200000 nM. Further, in [18], the “Intrinsic Gibbs energy change (ΔGint), CAVB” value is -14.9 kcal/mol and the Kd was determined as 30 nM. Further, in [19], the “Intrinsic Gibbs energy change (ΔGint), CAIX” value is -14.1 kcal/mol and the Kd amounted to 190 nM.
Compound `Cc1csc(N(CCC(=O)O)c2ccc(S(N)(=O)=O)cc2)n1` [Compound 27, 3-((4-Methylthiazol-2-yl)(4-sulfamoylphenyl)amino)propanoic acid] yielded a melting point of 162 to 163 °C. Moreover, the “Intrinsic Gibbs energy change (ΔGint), CAXIII” value in data set [5] was -13.5 kcal/mol. In [6], the pKa turned out to be 10.4. Also, in data set [7], the “Intrinsic Gibbs energy change (ΔGint), CAXIV” value is -15.8 kcal/mol and the Kd is 170 nM. Besides, in [8], the “Intrinsic Gibbs energy change (ΔGint), CAVI” value was -13 kcal/mol and the Kd turned out to be 18000 nM. Also, in [10], the “Intrinsic Gibbs energy change (ΔGint), CAI” value was -15 kcal/mol and the Kd is 67 nM. This compound returned a Kd in [11] of 870 nM. In data set [12], the “Intrinsic Gibbs energy change (ΔGint), CAXII” value was -15 kcal/mol and the Kd was determined as 180 nM. For the same compound, the Kd in data set [13] is ≥ 200000 nM. For the same compound, in data set [14], the “Intrinsic Gibbs energy change (ΔGint), CAII” value is -14.7 kcal/mol and the Kd came out at 220 nM. Also, in data set [15], the “Intrinsic Gibbs energy change (ΔGint), CAIV” value is -13.9 kcal/mol and the Kd is 1400 nM. In data set [16], the “Intrinsic Gibbs energy change (ΔGint), CAVII” value was -14.7 kcal/mol and the Kd is 250 nM. For the same compound, in [17] (37 °C, calculated (Equation 5)), the “Intrinsic Gibbs energy change (ΔGint), CAIII” value was -11.6 kcal/mol. Besides, the Kd in data set [17] turned out to be 63000 nM. Further, in data set [18], the “Intrinsic Gibbs energy change (ΔGint), CAVB” value was -14.1 kcal/mol and the Kd was found to be 560 nM. Also, in [19], the “Intrinsic Gibbs energy change (ΔGint), CAIX” value was -16 kcal/mol and the Kd worked out at 48 nM.
As to `NC(=S)N(CCC(=O)O)c1ccc(S(N)(=O)=O)cc1` [Compound 26], the Kd in [1] was 10000 nM; in data set [2] it was 10000 nM; in data set [3], 5000 nM; in [4], 33000 nM.

As usually defined, the melting point is the temperature, or range, at which the solid turns liquid. Usually pKa stands for the pH at which an ionisable group is half protonated.
